How the values were obtained:
[1] = C0 in Sprague-Dawley rat at 1 mg/kg,iv measured upto 24 hrs by LC-MS/MS analysis; format: ADME, organism-based; settings: in vivo
[2] = Acute toxicity in mouse assessed as body weight change at 1 g/Kg,IG monitored for 2 weeks; settings: in vivo, po, 1000 mg/kg, 336 h
[3] = AUC (0 to t) in Sprague-Dawley rat at 10 mg/kg,po measured upto 24 hrs by LC-MS/MS analysis; format: ADME, organism-based; set-up: dose 10 mg/kg, time < 24 hrs, route po; settings: in vivo
[4] = Selectivity index, ratio of CC50 for human MT4 cells to EC50 for antiviral activity against NNRTI resistant HIV-1 infected in human MT4 cells; format: toxicity, cell-based; settings: read-out: Ratio CC50/EC50
[5] = Acute toxicity in healthy mouse assessed as lung damage at 1 g/Kg,IG monitored for 2 weeks by HE staining based assay; format: tissue-based; settings: in vivo, po, 1000 mg/kg, 336 h
[6] = Acute toxicity in healthy mouse assessed as spleen damage at 1 g/Kg,IG monitored for 2 weeks by HE staining based assay; format: tissue-based; settings: in vivo, po, 1000 mg/kg, 336 h
[7] = tested on: Human immunodeficiency virus 1; test: Antiviral activity against […] HIV-1 infected in human MT4 cells assessed as reduction in virus-induced cytopathic effect incubated for 5 days by MTT assay; format: functional, organism-based; settings: Human immunodeficiency virus 1, MT4, 120 h
Cytochrome P450 2D6 = Cytochrome P450 2D6 (Homo sapiens, UniProt P10635); test: Inhibition of CYP2D6 in human liver microsomes using dextromethorphan as substrate incubated for 15 to 40 mins in presence of NADPH; format: ADME, Microsome
Cytochrome P450 1A2 = molecular target: T1, Cytochrome P450 1A2 (Homo sapiens, UniProt P05177); test: Inhibition of CYP1A2 in human liver microsomes using phenacetin as substrate incubated for 15 to 40 mins in presence of NADPH; format: ADME, Microsome
T1 sequence (P05177 whole entry): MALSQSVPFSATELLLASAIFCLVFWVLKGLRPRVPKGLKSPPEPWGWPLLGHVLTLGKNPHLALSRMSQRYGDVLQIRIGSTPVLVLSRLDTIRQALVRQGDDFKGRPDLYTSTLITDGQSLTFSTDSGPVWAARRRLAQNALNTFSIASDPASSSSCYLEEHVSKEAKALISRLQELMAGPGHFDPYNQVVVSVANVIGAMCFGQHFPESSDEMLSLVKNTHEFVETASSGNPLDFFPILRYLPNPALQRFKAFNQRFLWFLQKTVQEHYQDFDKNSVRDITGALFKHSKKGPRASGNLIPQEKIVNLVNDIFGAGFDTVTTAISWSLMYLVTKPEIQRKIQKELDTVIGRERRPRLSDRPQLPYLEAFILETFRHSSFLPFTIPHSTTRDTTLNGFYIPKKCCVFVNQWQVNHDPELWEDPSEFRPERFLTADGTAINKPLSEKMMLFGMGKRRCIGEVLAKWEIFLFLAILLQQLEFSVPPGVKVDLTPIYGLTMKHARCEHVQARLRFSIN

[8] = Tmax in Sprague-Dawley rat at 1 mg/kg,iv measured upto 24 hrs by LC-MS/MS analysis; format: ADME, organism-based; settings: in vivo
[9] = Acute toxicity in healthy mouse assessed as kidney damage at 1 g/Kg,IG monitored for 2 weeks by HE staining based assay; format: tissue-based; settings: in vivo, po, 1000 mg/kg, 336 h
[10] = Clearance in Sprague-Dawley rat at 1 mg/kg,iv measured upto 24 hrs by LC-MS/MS analysis; format: ADME, organism-based; settings: in vivo
[11] = Cytotoxicity against human MT4 cells assessed as cell growth inhibition incubated for 5 days by MTT assay; format: toxicity, cell-based; settings: time 5 day
[12] = Fold resistance, ratio of EC50 for antiviral activity against drug-resistant HIV-1 K103 N mutant infected in human MT4 cells to EC50 for antiviral activity against […] HIV-1 infected in human MT4 cells; format: functional
[13] = Acute toxicity in mouse assessed as behavioral abnormalities at 1 g/Kg,IG monitored for 2 weeks; settings: in vivo, po, 1000 mg/kg, 336 h
[14] = Half life in Sprague-Dawley rat at 10 mg/kg,po measured upto 24 hrs by LC-MS/MS analysis; format: ADME, organism-based; settings: in vivo
[15] = AUC (0 to infinity) in Sprague-Dawley rat at 10 mg/kg,po measured upto 24 hrs by LC-MS/MS analysis; format: ADME, organism-based; set-up: dose 10 mg/kg, time < 24 hrs, route po; settings: in vivo
[16] = Acute toxicity in healthy mouse assessed as brain damage at 1 g/Kg,IG monitored for 2 weeks by HE staining based assay; format: tissue-based; settings: in vivo, po, 1000 mg/kg, 336 h
[17] = Apparent volume of distribution in Sprague-Dawley rat at 1 mg/kg,iv measured upto 24 hrs by LC-MS/MS analysis; format: ADME, organism-based; settings: in vivo, read-out: Vz
Cytochrome P450 3A4 [18] = molecular target: T2, Cytochrome P450 3A4 (Homo sapiens, UniProt P08684); test: Inhibition of CYP3A4M in human liver microsomes using midazolam as substrate incubated for 15 to 40 mins in presence of NADPH; format: ADME, Microsome
hERG = hERG (Homo sapiens, UniProt Q12809); test: Inhibition of human ERG expressed in CHO cells at 40 uM at -80 mV holding potential by automated patch clamp method relative to control; format: toxicity, cell-based; settings: CHO cells that express hERG
[19] = tested on: Human immunodeficiency virus 1; test: Antiviral activity against drug-resistant HIV-1 K103 N mutant infected in human MT4 cells assessed as reduction in virus-induced cytopathic effect incubated for 5 days by MTT assay; format: functional, organism-based; settings: Human immunodeficiency virus 1, K103 N mutant, MT4, 120 h
[20] = Acute toxicity in healthy mouse assessed as heart damage at 1 g/Kg,IG monitored for 2 weeks by HE staining based assay; format: tissue-based; settings: in vivo, po, 1000 mg/kg, 336 h
[21] = Fold resistance, ratio of EC50 for antiviral activity against drug-resistant HIV-1 Y181C mutant infected in human MT4 cells to EC50 for antiviral activity against […] HIV-1 infected in human MT4 cells; format: functional
[22] = Tmax in Sprague-Dawley rat at 10 mg/kg,po measured upto 24 hrs by LC-MS/MS analysis; format: ADME, organism-based; settings: in vivo
[23] = Cmax in Sprague-Dawley rat at 1 mg/kg,iv measured upto 24 hrs by LC-MS/MS analysis; format: ADME, organism-based; set-up: dose 1 mg/kg, time < 24 hrs, route iv; settings: in vivo
[24] = MRT(0 to t) in Sprague-Dawley rat at 1 mg/kg,iv measured upto 24 hrs by LC-MS/MS analysis; format: ADME, organism-based; settings: in vivo
[25] = MRT (0 to infinity) in Sprague-Dawley rat at 10 mg/kg,po measured upto 24 hrs by LC-MS/MS analysis; format: ADME, organism-based; settings: in vivo
[26] = MRT (0 to infinity) in Sprague-Dawley rat at 1 mg/kg,iv measured upto 24 hrs by LC-MS/MS analysis; format: ADME, organism-based; settings: in vivo
[27] = tested on: Human immunodeficiency virus 1; test: Antiviral activity against drug-resistant HIV-1 E138K mutant infected in human MT4 cells assessed as reduction in virus-induced cytopathic effect incubated for 5 days by MTT assay; format: functional, organism-based; settings: Human immunodeficiency virus 1, E138K mutant, MT4, 120 h
[28] = Clearance in Sprague-Dawley rat at 10 mg/kg,po measured upto 24 hrs by LC-MS/MS analysis; format: ADME, organism-based; settings: in vivo
[29] = Acute toxicity in healthy mouse assessed as liver damage at 1 g/Kg,IG monitored for 2 weeks by HE staining based assay; format: tissue-based; settings: in vivo, po, 1000 mg/kg, 336 h
Cytochrome P450 3A4 [30] = molecular target: T2, Cytochrome P450 3A4; test: Inhibition of CYP3A4T in human liver microsomes using testosterone as substrate incubated for 15 to 40 mins in presence of NADPH; format: ADME, Microsome
[31] = Acute toxicity in mouse assessed as mouse death at 1 g/Kg,IG monitored for 2 weeks; settings: in vivo, po, 1000 mg/kg, 336 h

T2 sequence (P08684 whole entry): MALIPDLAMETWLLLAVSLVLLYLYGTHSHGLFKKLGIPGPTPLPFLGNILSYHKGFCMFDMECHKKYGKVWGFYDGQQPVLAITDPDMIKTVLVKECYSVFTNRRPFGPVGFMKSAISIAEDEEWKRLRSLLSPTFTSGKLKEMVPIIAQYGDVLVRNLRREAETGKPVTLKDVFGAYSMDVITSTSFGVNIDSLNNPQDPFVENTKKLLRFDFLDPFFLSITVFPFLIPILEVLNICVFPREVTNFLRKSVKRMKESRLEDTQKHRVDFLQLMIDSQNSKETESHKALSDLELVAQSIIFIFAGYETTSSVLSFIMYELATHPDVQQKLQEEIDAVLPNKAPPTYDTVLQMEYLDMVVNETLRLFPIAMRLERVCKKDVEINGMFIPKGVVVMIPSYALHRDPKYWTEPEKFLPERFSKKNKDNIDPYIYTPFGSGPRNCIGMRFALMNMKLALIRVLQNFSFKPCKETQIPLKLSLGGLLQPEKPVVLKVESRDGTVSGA
hERG, sequence (Q12809 whole entry): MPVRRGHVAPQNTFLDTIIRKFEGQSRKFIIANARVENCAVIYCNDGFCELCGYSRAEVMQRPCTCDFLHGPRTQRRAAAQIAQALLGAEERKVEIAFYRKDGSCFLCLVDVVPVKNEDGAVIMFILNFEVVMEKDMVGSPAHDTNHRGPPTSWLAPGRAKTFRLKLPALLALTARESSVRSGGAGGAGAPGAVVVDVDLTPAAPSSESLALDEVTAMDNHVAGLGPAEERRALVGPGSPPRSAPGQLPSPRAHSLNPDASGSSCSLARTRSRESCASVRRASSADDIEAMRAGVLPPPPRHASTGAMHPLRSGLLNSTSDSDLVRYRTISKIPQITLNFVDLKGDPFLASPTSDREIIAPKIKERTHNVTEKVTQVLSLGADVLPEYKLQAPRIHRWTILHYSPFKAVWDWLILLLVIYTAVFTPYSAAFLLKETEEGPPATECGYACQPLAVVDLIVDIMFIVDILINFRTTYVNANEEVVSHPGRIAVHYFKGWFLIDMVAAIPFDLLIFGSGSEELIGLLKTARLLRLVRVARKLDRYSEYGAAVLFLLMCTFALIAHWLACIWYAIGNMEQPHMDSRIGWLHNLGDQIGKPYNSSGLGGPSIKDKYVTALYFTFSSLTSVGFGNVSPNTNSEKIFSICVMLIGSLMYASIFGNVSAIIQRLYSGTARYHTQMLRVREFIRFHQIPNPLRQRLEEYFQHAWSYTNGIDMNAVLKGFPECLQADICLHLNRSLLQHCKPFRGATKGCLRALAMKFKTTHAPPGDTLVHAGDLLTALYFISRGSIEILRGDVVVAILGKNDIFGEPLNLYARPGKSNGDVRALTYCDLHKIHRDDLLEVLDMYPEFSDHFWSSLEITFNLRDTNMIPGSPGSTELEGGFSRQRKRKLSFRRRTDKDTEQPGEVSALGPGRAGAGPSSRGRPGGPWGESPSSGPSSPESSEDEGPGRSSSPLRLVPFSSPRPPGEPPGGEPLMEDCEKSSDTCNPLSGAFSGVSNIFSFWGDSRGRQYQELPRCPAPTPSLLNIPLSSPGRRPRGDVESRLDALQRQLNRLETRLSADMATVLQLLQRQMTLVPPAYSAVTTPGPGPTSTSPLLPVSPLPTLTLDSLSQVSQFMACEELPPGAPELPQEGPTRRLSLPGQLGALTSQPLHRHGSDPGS
Cytochrome P450 2D6, sequence (P10635 whole entry): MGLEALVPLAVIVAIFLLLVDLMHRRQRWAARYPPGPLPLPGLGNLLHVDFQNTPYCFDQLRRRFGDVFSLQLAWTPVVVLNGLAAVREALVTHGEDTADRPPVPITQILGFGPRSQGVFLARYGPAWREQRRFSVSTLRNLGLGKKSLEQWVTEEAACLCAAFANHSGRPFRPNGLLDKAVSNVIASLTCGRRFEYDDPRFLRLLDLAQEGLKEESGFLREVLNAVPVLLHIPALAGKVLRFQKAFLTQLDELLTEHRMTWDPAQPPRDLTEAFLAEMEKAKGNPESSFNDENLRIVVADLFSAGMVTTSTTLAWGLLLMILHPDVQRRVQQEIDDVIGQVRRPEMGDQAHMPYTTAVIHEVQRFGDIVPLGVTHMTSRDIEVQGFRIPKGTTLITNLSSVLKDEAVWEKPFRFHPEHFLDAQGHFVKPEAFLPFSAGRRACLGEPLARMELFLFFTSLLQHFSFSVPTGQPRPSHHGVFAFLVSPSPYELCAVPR

Cc1c(C(C#N)c2c(F)cccc2F)nc(SC(C)C)[nH]c1=O (centres undefined)
C0 at 24 h [1]: 9310 ng/mL | Activity [2]: Non-Toxic | AUC(0-t) at 24 h [3]: 133 µg·h/mL | selectivity ratio [4]: 6560 | Activity [5]: Non-Toxic | Activity [6]: Non-Toxic | EC50 [7]: 0.0208 µM | IC50 (Cytochrome P450 2D6): > 50 µM | IC50 (Cytochrome P450 1A2): > 50 µM | Tmax [8]: 4.8 min | Activity [9]: Non-Toxic | clearance [10]: 2.13 mL/min/kg | CC50 at 120 h [11]: 137 µM | Ratio EC50 [12]: 163 | Activity [13]: Non-Toxic | half-life [14]: 4.39 h | AUC(0-inf) [15]: 136 µg·h/mL | Activity [16]: Non-Toxic | Vd [17]: 0.764 L/kg | IC50 (Cytochrome P450 3A4 [18]): > 50 µM | inhibition at 40 µM (hERG): 29.4% | EC50 [19]: 3.39 µM | Activity [20]: Non-Toxic | Ratio EC50 [21]: 36 | Tmax [22]: 3.5 h | Cmax [23]: 7620 ng/mL | MRT last at 24 h [24]: 2.25 h | MRT inf [25]: 6.82 h | MRT inf [26]: 2.41 h | EC50 [27]: 0.05 µM | CL/F [28]: 1.24 mL/min/kg | Activity [29]: Non-Toxic | IC50 (Cytochrome P450 3A4 [30]): > 50 µM | Activity [31]: Non-Toxic

From ChEMBL document CHEMBL5137044, “Expansion of the S-CN-DABO scaffold to exploit the impact on inhibitory activities against the non-nucleoside HIV-1 reverse transcriptase” (Eur J Med Chem, 2022)
